Source: patent US20110158947A1, “SULFONYLUREA RECEPTOR AND MEANS FOR TREATING ISCHAEMIA” (priority 2008, published 2011)

Tests used:
H9C2 cells = experiment: Cell survival assay (Multitox-Fluor) under DNP metabolic stress; format: cell-based, rat; conditions: control (GFP-infected) H9C2 cells, DNP 10 mM, n=14
Method: H9C2 cells Rat embryonic heart H9c2 cells (ECACC, Salisbury, UK) were cultured in a tissue flask (at 5% CO2) containing Dulbecco's modified Eagle's medium supplemented with 10% fetal calf serum and 2 mM glutamine. For electrophysiological experiments, the cells were plated on a 35×10-mm culture dish containing 25-mm glass cover-slips. The cells were cultured in incubators (Galaxy, oxygen control model, RS Biotech, Irvine, UK). […] The recombinant SUR2A adenovirus (AV-SUR2A) was generated using the AdEasy XL Adenoviral Vector System (Stratagene). SUR2A gene was cloned into a shuttle vector pShuttle-CMV by PCR using the following primers containing restrict enzyme sites Bgl II/Xho I, sense, 5′-GCAGATCT GGCAGGCTGTTGGTAGCTCA-3′, antisense, 5′-GCCTCGAG CTACTTGTTGGTCATCACCA-3. […] The virus titer is determined using QuickTiter Adenovirus Titer Immunoassay Kit (Cell Biolabs, Inc) according to manufacturer's instructions. […]
The survival of H9C2 cells were assayed using Multitox-Fluor Multiplex Cytotoxicity Assay (Promega). […] Following 30 min-long incubation at 37° C., plates were measured using 1420 Multibabel Counter (Victor) plate reader, with excitation at 370 nm and emissions of 480 nm. The percentage of live cells was calculated based on the intensity of fluorescence according to the manufacturer instructions.

cardiomyocytes = experiment: Intracellular Ca2+ (Fluo-3) in cardiomyocytes exposed to isoprenaline; format: cell-based, mouse; conditions: 100 μM, n=6
From the text: Ventricular cardiomyocytes were dissociated from the mouse using an established enzymatic procedure. Mitochondrial membrane potential was monitored in cells exposed to hypoxia as described. To measure the mitochondrial membrane potential cells were loaded with JC-1 according to the manufacturer's instructions (Invitrogen, Paisley, UK) and continously monitored with LSM-510. Fluorescence was imaged at 488 nm excitation wavelength and emission was captured at 530 and 590 nm for green and red channels respectively; the JC-1 ratio refers always to green/red ratio. The moment of cell death was defined as the point when the cell has become rounded (ratio of diameters<2). In addition to mitochondrial membrane potential, intracellular Ca^2+ levels were also measured using Fluo-3, Ca^2+-sensitive dye [described in 11-13].

male mice = experiment: Treadmill endurance test; format: in vivo; conditions: one week, n=6
Method: All experiments have been done on male mice. Mice were on RM1 ad libidum diet (SDS, UK) and RM1 diet supplemented with nicotinamide (0.1, 0.5, 2.5, 12.5 g of nicotinamide per kg of diet which would lead to daily intake of 0.04 mg of nicotinamide in control diet and 0.4 mg, 2 mg, 10 mg and 50 mg in nicotinamide-rich diets). All mice were of similar age and weight. Mice were on these diets for a week. To assess physical endurance in these mice, we have used treadmill endurance test. A six lane treadmill (Columbus Instruments, Columbus, Ohio) was used to perform treadmill tests. The exercise-induced stress protocol consisted of a step-wise increase in velocity at constant incline. Before the experiments, animals were acclimatized to the treadmill for 30 minutes; 10 minutes at 0 m/min, 10 minutes at 3 m/min followed by 10 minutes at 6 m/min two days prior to the treadmill endurance test. The treadmill endurance test consisted of a step-wise increase in velocity over time at constant incline. The animal was made to run at 3, 5, 8 (all at m/min) for 3 min intervals followed by 9, 10, 11, 12, 13, 14, 15 (all at m/min) for 5 min intervals and then at a constant velocity of 16 m/min until exhaustion. After the test, mice were sacrificed, hearts harvested and SUR2A mRNA levels measured. More specifically, total RNA was extracted from cardiac ventricular tissue of transgenic and wild type mice using TRIZOL reagent (Invitrogen, Paisley, UK) according to the manufacturer's recommendations. Extracted RNA was further purified with RNeasy Mini Kit (Qiagen, Crawley, UK) according to the manufacturer's instruction. The for mouse SUR2A were designed as follows: sense, […], antisense, […]. The reverse transcription (RT) reaction was carried out with ImProm-II Reverse Transcriptase (Promega, Southampton, UK). […] Efficiency is evaluated by the slope of the regression curve obtained with several dilutions of the cDNA template. […] Threshold cycle values, PCR efficiency (examined by serially diluting the template cDNA and performing PCR under these conditions) and PCR specificity (by constructing the melting curve) were determined by the same software. […] The relative expression ratio(R) of a gene encoding KATP channel subunit is calculated using equation R=(EK)^ΔCPk^(CD-ND)/(ER)^ΔCPR^(CD-ND) where EK is the real time PCR efficiency of SUR2A gene transcript, ER is the real time PCR efficiency of GAPDH gene, ΔCPK is the crossing point deviation of control diet-nicotinamide diet of SUR2A gene transcript while ΔCPR is the crossing point deviation of control diet-nicotinamide diet of GAPDH gene transcript.

SUR2A mRNA = experiment: Real time RT-PCR of myocardial SUR2A mRNA in mice on nicotinamide-rich diet; format: in vivo; conditions: n=6
From the text: Real time RT-PCR Total RNA was extracted from cardiac ventricular tissue of transgenic and wild type mice using TRIZOL reagent (Invitrogen, Paisley, UK) according to the manufacturer's recommendations. Extracted RNA was further purified with RNeasy Mini Kit (Qiagen, Crawley, UK) according to the manufacturer's instruction. The specific primers for mouse SUR2A, Kir6.2, Kir6.1, SUR1 and SUR2B (designed to amplify SUR2B and natively present SUR2A) were designed as follows: For SUR2A: sense, […], antisense, […]; for Kir6.2: sense; […], antisense, […]; for Kir6.1: sense, 5′-[…]-3, antisense, 5-[…]-3′; for SUR1: sense, 5′-GGAAGGACTCACCACCATC-3′, antisense, 5′-GAGACCATCAAGGCGTAGG-3′; for SUR2B: sense, 5′-GATGCCACTGTCACCGAAG-3′, antisense, 5-[…]-3′. The real time RT-PCR was performed as described in ref. 14.
Nicotinamide was administered orally, i.e. as a dietary supplement. Mice were fed with nicotinamide-rich diet (ad libidum; 500 mg of nicotinamide per 1 kg of food) for 3 weeks. Estimated daily intake was 2.5 mg. For some in vitro experiments, cardiac cells were incubated for 24 hours in a DMEM medium containing 10% fetal calf serum, 2 mM glutamine and 20 mM NAD or NADH.
All experiments have been done on male mice. […] After the test, mice were sacrificed, hearts harvested and SUR2A mRNA levels measured. […]

Structure (SMILES): O=[N+]([O-])c1ccc(O)c([N+](=O)[O-])c1 [DNP]
- cells that survived DNP (H9C2 cells): 43.3±1.8%

Structure (SMILES): CC(C)NCC(O)c1ccc(O)c(O)c1 (stereo not drawn) [isoprenaline]
- relative fluo-3 fluorescence (calcium levels) (cardiomyocytes; cardiomyocytes from transgenic SUR2A mice): 78±16.6
- relative fluo-3 fluorescence (calcium levels) (cardiomyocytes; cardiomyocytes from wild type mice): 127.2±13.8

Structure (SMILES): NC(=O)c1cccnc1 [nicotinamide]
- time on treadmill (male mice; 0.1 g/kg nicotinamide in diet): 144.0 ± 14.9 min
- time on treadmill (male mice; 0.5 g/kg nicotinamide in diet): 95.3 ± 18.1 min
- time on treadmill (male mice; 2.5 g/kg nicotinamide in diet): 103.7 ± 20.4 min
- time on treadmill (male mice; 12.5 g/kg nicotinamide in diet): 88.2 ± 12.5 min
- threshold cycle, SUR2A mRNA in the heart (SUR2A mRNA; 0.1 g/kg nicotinamide-rich diet, one week, after treadmill test): 21.8±0.8
- threshold cycle, SUR2A mRNA in hearts (SUR2A mRNA; nicotinamide-rich diet, 500 mg per 1 kg of food, 3 weeks, lower cycle = more mRNA): 23.57±1.47
